In assay [1] the target is T1, Vasopressin V1a receptor (Rattus norvegicus, UniProt P30560). Put plainly: Inhibition of [3H]AVP binding to Dawley rat hepatic vasopressin V1a receptor.
For the next assay, the target named is Vasopressin V2 receptor (Rattus norvegicus, UniProt Q00788). Put plainly: Inhibition of [3H]AVP binding to Dawley rat kidney medullary vasopressin V2 receptor.
In assay [2] the test system is Rattus norvegicus. Description: Aquaretic effect was measured by the amount of urine collected after 4 hr at a dose of 30 mg/kg ip in 6 Dawley rats. Type of assay: functional. As to conditions: route intraperitoneal.
In assay [3] the test system is Rattus norvegicus. Put plainly: Aquaretic effect was measured by the amount of urine collected after 4 hr at a dose of 10 mg/kg ip in 2 Dawley rats. Type of assay: functional. As to conditions: route intraperitoneal.
Assay [4] concerns the target Vasopressin V2 receptor (Rattus norvegicus) (UniProt Q00788). Description: Compound was tested for the inhibition of [3H]AVP binding to Dawley rat kidney medullary Vasopressin V2 receptor. The following applies: concentration not given here.
The target of assay [5] is Vasopressin V1a receptor (Rattus norvegicus) (UniProt P30560). Description: Compound was tested for the inhibition of [3H]AVP binding to Dawley rat hepatic Vasopressin V1a receptor. As to conditions: concentration not given here.
The target of assay [6] is T1, Vasopressin V1a receptor. Put plainly: Compound was tested for the inhibition of [3H]AVP binding to Dawley […].

T1 sequence (P30560 whole entry): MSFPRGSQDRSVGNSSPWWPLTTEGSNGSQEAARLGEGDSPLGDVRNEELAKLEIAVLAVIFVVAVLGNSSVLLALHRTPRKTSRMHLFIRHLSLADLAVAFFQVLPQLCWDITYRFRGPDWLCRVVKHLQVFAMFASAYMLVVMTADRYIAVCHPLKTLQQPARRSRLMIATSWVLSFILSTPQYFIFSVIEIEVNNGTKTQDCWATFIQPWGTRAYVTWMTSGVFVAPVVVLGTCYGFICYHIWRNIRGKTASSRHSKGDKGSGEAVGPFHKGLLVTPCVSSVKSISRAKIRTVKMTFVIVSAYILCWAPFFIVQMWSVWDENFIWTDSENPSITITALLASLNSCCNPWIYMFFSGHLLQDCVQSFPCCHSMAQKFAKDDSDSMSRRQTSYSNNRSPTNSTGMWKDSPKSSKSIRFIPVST
Chain of Vasopressin V2 receptor (Q00788 whole entry): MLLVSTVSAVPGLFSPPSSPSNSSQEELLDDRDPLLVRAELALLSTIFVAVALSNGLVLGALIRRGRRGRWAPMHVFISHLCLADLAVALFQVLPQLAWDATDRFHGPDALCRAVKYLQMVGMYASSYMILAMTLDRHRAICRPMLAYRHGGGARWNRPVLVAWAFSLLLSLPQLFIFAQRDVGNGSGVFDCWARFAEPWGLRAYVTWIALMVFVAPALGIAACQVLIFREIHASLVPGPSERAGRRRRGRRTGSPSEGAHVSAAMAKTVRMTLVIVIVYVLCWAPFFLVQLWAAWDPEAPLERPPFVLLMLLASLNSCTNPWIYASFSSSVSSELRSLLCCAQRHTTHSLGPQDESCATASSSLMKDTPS
Chain of Vasopressin V1a receptor (Rattus norvegicus) (P30560 whole entry, looked up): as the sequence (P30560 whole entry) above
Chain of Vasopressin V2 receptor (Rattus norvegicus) (Q00788 whole entry): as the sequence (Q00788 whole entry) above

For orientation: IC50 means the concentration needed to halve the response being measured. Consider `O=C(Nc1ccc(C(=O)N2Cc3cccn3Cc3ccccc32)cc1)c1ccc(F)cc1Cl`, for which the IC50 on Vasopressin V1a receptor [1] was found to be 7 nM; at Vasopressin V2 receptor, 4 nM.
As for `Cc1ccccc1C(=O)Nc1ccc(C(=O)N2Cc3ccccc3Nc3ccccc32)cc1`, in the assay on Rattus norvegicus [2], the Urine volume came out at 7.4 ml 4hr-1.
In the assay on Rattus norvegicus [3], `O=C(Nc1ccc(C(=O)N2Cc3cccn3Cc3ccccc32)cc1)c1ccccc1Cl` displayed a Urine volume of 12.4 ml 4hr-1.
On to `O=C(Nc1ccc(C(=O)N2Cc3cccn3Cc3ccccc32)cc1)c1ccccc1O`, for which, at Vasopressin V2 receptor, the IC50 is 540 nM.
`Cc1ccccc1C(=O)Nc1ccc(C(=O)N2Cc3ccccc3Oc3ccccc32)cc1`: the 50% inhibitory concentration (IC50) is 1500 nM at Vasopressin V1a receptor [1] and 1700 nM at Vasopressin V2 receptor.
With `Cc1ccc(F)cc1C(=O)Nc1ccc(C(=O)N2Cc3cccn3Cc3ccccc32)cc1`, on Vasopressin V2 receptor, the half-maximal inhibitory concentration (IC50) stood at 1.5 nM. Besides, the Urine volume with Rattus norvegicus [3] is reported as 21.8 ml 4hr-1.
In the case of `Cc1ccccc1C(=O)Nc1ccc(C(=O)N2c3ccccc3CCc3ccccc32)cc1`, the half-maximal inhibitory concentration (IC50) on Vasopressin V1a receptor [1] came to 2500 nM; at Vasopressin V2 receptor, 860 nM.
`Cc1ccc(F)cc1C(=O)Nc1ccc(C(=O)N2Cc3cccn3Cc3ccccc32)c(Cl)c1` [LIXIVAPTAN] had a Urine volume with Rattus norvegicus [3] of 22 ml 4hr-1.
What is called inhibition is the share of the control response that was lost under treatment. Higher therefore signals strong suppression. As for `Cc1ccccc1C(=O)Nc1ccc(C(=O)N2Cc3ccccc3CCc3ccccc32)cc1`, the inhibition in assay [4] turned out to be 80%; in assay [5], 60%. Further, the IC50 was determined as 50000 nM on Vasopressin V2 receptor and 50 µM at Vasopressin V1a receptor [6].
For the compound `O=C(Nc1ccc(C(=O)N2Cc3cccn3Cc3ccccc32)cc1)c1ccccc1Br`, the IC50 was determined as 2 nM at Vasopressin V1a receptor [1] and 7 nM at Vasopressin V2 receptor.
In the case of `Cc1cccc(C(=O)Nc2ccc(C(=O)N3Cc4cccn4Cc4ccccc43)cc2)c1C`, the IC50 came out at 240 nM on Vasopressin V1a receptor [1] and 13 nM on Vasopressin V2 receptor.
